Assay results reported in ChEMBL document CHEMBL3525905, “Brain distribution and bioavailability of elacridar after different routes of administration in the mouse” (Drug Metab Dispos, 2012).

How the values were obtained:
[1] = Terminal half life in wild type FVB mouse plasma at 100 mg/kg, ip; type: ADME, organism-based; parameters: dose 100 mg/kg, route intraperitoneal; details: read-out: beta t1/2 (converted)
[2] = Terminal half life in wild type FVB mouse brain at 100 mg/kg, po; type: ADME, organism-based; parameters: dose 100 mg/kg, route oral; details: read-out: beta t1/2 (converted)
Plasma [3] = assay: Bioavailability in wild type FVB mouse at 2.5 mg/kg, iv; type: ADME, organism-based; details: in vivo
[4] = AUC (0 to last) in wild type FVB mouse plasma at 2.5 mg/kg, iv; type: ADME, organism-based; parameters: time 0 - last, dose 2.5 mg/kg, route intravenous
[5] = Apparent plasma clearance in wild type FVB mouse plasma at 100 mg/kg, ip; type: ADME, organism-based; parameters: dose 100 mg/kg, route intraperitoneal
[6] = Terminal half life in wild type FVB mouse brain at 100 mg/kg, ip; type: ADME, organism-based; parameters: dose 100 mg/kg, route intraperitoneal; details: read-out: beta t1/2 (converted)
[7] = AUC (0 to last) in wild type FVB mouse plasma at 100 mg/kg, po; type: ADME, organism-based; parameters: time 0 - last, dose 100 mg/kg, route oral
[8] = Lipophilicity, logP of the compound; type: physicochemical; details: octanol/water
[9] = Apparent plasma clearance in wild type FVB mouse at 100 mg/kg, po; type: ADME, organism-based; parameters: dose 100 mg/kg, route oral
[10] = Apparent oral volume of distribution in wild type FVB mouse plasma at 100 mg/kg, ip; type: ADME, organism-based; parameters: dose 100 mg/kg
[11] = Tmax in wild type FVB mouse plasma at 2.5 mg/kg, iv; type: ADME, organism-based; parameters: dose 2.5 mg/kg, route intravenous
[12] = Cmax in wild type FVB mouse plasma at 2.5 mg/kg, iv; type: ADME, organism-based; parameters: dose 2.5 mg/kg, route intravenous
[13] = Terminal half life in wild type FVB mouse plasma at 100 mg/kg, po; type: ADME, organism-based; parameters: dose 100 mg/kg, route oral; details: read-out: beta t1/2 (converted)
[14] = AUC (0 to last) in wild type FVB mouse plasma at 100 mg/kg, ip; type: ADME, organism-based; parameters: time 0 - last, dose 100 mg/kg, route intraperitoneal
[15] = Tmax in wild type FVB mouse brain at 2.5 mg/kg, iv; type: ADME, organism-based; parameters: dose 2.5 mg/kg, route intravenous
Plasma [16] = assay: AUC (0 to infinity) in wild type FVB mouse plasma at 100 mg/kg, ip; type: ADME, organism-based; parameters: time infinity, dose 100 mg/kg, route intraperitoneal; details: in vivo
[17] = AUC (0 to infinity) in wild type FVB mouse brain at 100 mg/kg, po; type: ADME, organism-based; parameters: time infinity, dose 100 mg/kg, route oral
[18] = Cmax in wild type FVB mouse brain at 100 mg/kg, ip; type: ADME, organism-based; parameters: dose 100 mg/kg, route intraperitoneal
[19] = Tmax in wild type FVB mouse plasma at 100 mg/kg, ip; type: ADME, organism-based; parameters: dose 100 mg/kg, route intraperitoneal
[20] = Apparent oral volume of distribution in wild type FVB mouse at 100 mg/kg, po; type: ADME, organism-based; parameters: dose 100 mg/kg, route oral; details: plasma
[21] = Terminal half life in wild type FVB mouse brain at 2.5 mg/kg, iv; type: ADME, organism-based; parameters: dose 2.5 mg/kg, route intravenous; details: read-out: beta t1/2 (converted)
[22] = AUC (0 to last) in wild type FVB mouse brain at 2.5 mg/kg, iv; type: ADME, organism-based; parameters: time 0 - last, dose 2.5 mg/kg, route intravenous
[23] = AUC (0 to infinity) in wild type FVB mouse brain at 2.5 mg/kg, iv; type: ADME, organism-based; parameters: time infinity, dose 2.5 mg/kg, route intravenous
[24] = Tmax in wild type FVB mouse plasma at 100 mg/kg, po; type: ADME, organism-based; parameters: dose 100 mg/kg, route oral
Plasma [25] = assay: Bioavailability in wild type FVB mouse at 100 mg/kg, ip; type: ADME, organism-based; details: in vivo
[26] = Tmax in wild type FVB mouse brain at 100 mg/kg, po; type: ADME, organism-based; parameters: dose 100 mg/kg, route oral
[27] = Tmax in wild type FVB mouse brain at 100 mg/kg, ip; type: ADME, organism-based; parameters: dose 100 mg/kg, route intraperitoneal
[28] = Cmax in wild type FVB mouse plasma at 100 mg/kg, po; type: ADME, organism-based; parameters: dose 100 mg/kg, route oral
[29] = AUC (0 to infinity) in wild type FVB mouse brain at 100 mg/kg, ip; type: ADME, organism-based; parameters: dose 100 mg/kg, route intraperitoneal, time infinity
[30] = AUC (0 to infinity) in wild type FVB mouse plasma at 100 mg/kg, po; type: ADME, organism-based; parameters: time infinity, dose 100 mg/kg, route oral
[31] = Ratio of AUC in brain to plasma in wild type FVB mouse plasma at 2.5 mg/kg, iv; type: ADME, organism-based; parameters: dose 2.5 mg/kg, route intravenous; details: brain and plasma
Plasma [32] = assay: Apparent plasma clearance in wild type FVB mouse plasma at 2.5 mg/kg, iv; type: ADME, organism-based; parameters: dose 2.5 mg/kg, route intravenous; details: in vivo
[33] = Ratio of AUC in brain to plasma in wild type FVB mouse plasma at 100 mg/kg, ip; type: ADME, organism-based; parameters: dose 100 mg/kg, route intraperitoneal; details: brain and plasma
Plasma [34] = assay: AUC (0 to infinity) in wild type FVB mouse plasma at 2.5 mg/kg, iv; type: ADME, organism-based; parameters: time infinity, dose 2.5 mg/kg, route intravenous; details: in vivo
[35] = Cmax in wild type FVB mouse brain at 100 mg/kg, po; type: ADME, organism-based; parameters: dose 100 mg/kg, route oral
[36] = Terminal half life in wild type FVB mouse plasma at 2.5 mg/kg, iv; type: ADME, organism-based; parameters: dose 2.5 mg/kg, route intravenous; details: read-out: beta t1/2 (converted)
[37] = Ratio of AUC in brain to plasma in wild type FVB mouse plasma at 100 mg/kg, po; type: ADME, organism-based; parameters: dose 100 mg/kg, route oral; details: brain and plasma
[38] = […] Kp, ratio of AUC in brain to plasma in wild type FVB mouse plasma at 10 mg/kg, ip; type: ADME, organism-based; parameters: dose 10 mg/kg, route intraperitoneal; details: brain and plasma
[39] = Apparent oral volume of distribution in wild type FVB mouse plasma at 2.5 mg/kg, iv; type: ADME, organism-based; parameters: dose 2.5 mg/kg
[40] = Cmax in wild type FVB mouse brain at 2.5 mg/kg, iv; type: ADME, organism-based; parameters: dose 2.5 mg/kg, route intravenous
[41] = AUC (0 to last) in wild type FVB mouse brain at 100 mg/kg, po; type: ADME, organism-based; parameters: time 0 - last, dose 100 mg/kg, route oral
[42] = Cmax in wild type FVB mouse plasma at 100 mg/kg, ip; type: ADME, organism-based; parameters: dose 100 mg/kg, route intraperitoneal
[43] = AUC (0 to last) in wild type FVB mouse brain at 100 mg/kg, ip; type: ADME, organism-based; parameters: time 0 - last, dose 100 mg/kg, route intraperitoneal
[44] = Oral bioavailability in wild type FVB mouse at 100 mg/kg; type: ADME, organism-based; details: plasma

Compound: COc1cc2c(cc1OC)CN(CCc1ccc(NC(=O)c3cccc4c(=O)c5cccc(OC)c5[nH]c34)cc1)CC2 [ELACRIDAR]
- half-life [1]: 4.3 h
- half-life [2]: 16 h
- F (Plasma [3]): 100%
- AUC(0-t) [4]: 2310 ng·h/mL
- CL/F [5]: 33.2 mL/min
- half-life [6]: 9.2 h
- AUC(0-t) [7]: 13200 ng·h/mL
- logP [8]: 5.67
- CL/F [9]: 2.05 mL/min
- Vd/F [10]: 12.3 L
- Tmax [11]: 0.5 h
- Cmax [12]: 564 ng/mL
- half-life [13]: 20 h
- AUC(0-t) [14]: 1060 ng·h/mL
- Tmax [15]: 0.5 h
- AUC (Plasma [16]): 90.3 µg·min/mL
- AUC(0-inf) [17]: 105000 ng·h/mL
- Cmax [18]: 61 ng/mL
- Tmax [19]: 0.5 h
- Vd/F [20]: 3.5 L
- half-life [21]: 1.5 h
- AUC(0-t) [22]: 2140 ng·h/mL
- AUC(0-inf) [23]: 2190 ng·h/mL
- Tmax [24]: 8 h
- F (Plasma [25]): 13%
- Tmax [26]: 8 h
- Tmax [27]: 4 h
- Cmax [28]: 780 ng/mL
- AUC(0-inf) [29]: 725 ng·h/mL
- AUC(0-inf) [30]: 24300 ng·h/mL
- Kp [31]: 0.82
- CL/F (Plasma [32]): 0.46 mL/min
- Kp [33]: 0.48
- AUC (Plasma [34]): 161.4 µg·min/mL
- Cmax [35]: 4340 ng/mL
- half-life [36]: 4.4 h
- Kp [37]: 4.31
- Kp [38]: 0.0784
- Vd/F [39]: 0.17 L
- Cmax [40]: 1050 ng/mL
- AUC(0-t) [41]: 64800 ng·h/mL
- Cmax [42]: 295 ng/mL
- AUC(0-t) [43]: 332 ng·h/mL
- bioavailability [44]: 22%
